Read-outs that look alike come from different tables or passages of the source.

Data set [1] relates to human neonatal dermal fibroblast (Cryo NHDF-Neo). Briefly: cells. The note with it: for effect of pre-irradiation addition on viable cells and cell death (in words): pre-irradiation addition 0.001 to 100 μM, UV-A 9 J/cm^2. The procedure: The ultraviolet irradiation after switching into a medium added with 0.1 μM (micro-molar) D-proline was employed as a positive control, while the ultraviolet irradiation to the medium still being free of such an added amino acid was employed as a negative control.
(degrees Celsius) for 40 hours.

Data set [2] deals with Male hairless mice (Hos: HR-1). From the text: (§1) Male hairless mice (Hos: HR-1, six-week old, Hoshino Laboratory Animals, Inc.) were employed and subjected to a partly modified method by Schwarz et al. (Haratake A. et al. J. Invest. Dermatol. 108:769-775, 1997.) in accordance with the repetitive UV-B irradiation method (Naganuma M. et al. J. Dermatol. Sci. 25:29-35, 2001. Schwartz E. J. Invest. Dermatol. 91:158-161, 1988.) whereby forming wrinkles. Thus, the dorsal region was irradiated with UV-B (light source: Toshiba FL-20 SE fluorescent lamp manufactured by Toshiba Electric) three times a week for 12 weeks. […] The total irradiation dose was 4.482 J/cm^2. The UV dose measured using UVRADIOMETER (UVR-305/365D (II), Topcon Corporation) was employed as a readout. During the UV-B irradiation, 10 mM D-methionine was given via a water supplier bottle. As a control, a tap water was given in the same manner. The water supplier bottle was exchanged once a week.
After the end of the UV irradiation, the skin thickness was measured using a thickness gauge (Mitsutoyo Corporation, PK-1012SU). The measured value of the skin thickness was designated as “skin thickness×2”, since the measurement was conducted by pinching the skin with the thickness gauge.

Data set [3] deals with Male hairless mice (Hos: HR-1). The conditions noted are these: Example 2, 10 mM in drinking water.
Description: as §1
After the irradiation to the mice described above, the dorsal regions of the mice were photographed, and a partly modified method by Bissett et al. (Bissett D L. et al. Photochemistry and Photobiology 46:367-378, 1987.) was employed to evaluate the degree of wrinkling in accordance with the criteria indicated in Table 1 below. […]

Data set [4] has as its system Male hairless mice (Hos: HR-1). The note with it: Example 3, 10 mM in drinking water; for effect on UV-B-induced wrinkling (in words): P=0.55% in Mann-Whitney U test; for number of animals of each wrinkle score after the UV-B irradiation: UV(+) control: one scored 5, two 6, two 7, three 8.
Description: as §1
After the irradiation to the mice described above, the dorsal regions of the mice were photographed, and a partly modified method by Bissett et al. (Bissett D L. et al. Photochemistry and Photobiology 46:367-378, 1987.) was employed to evaluate the degree of wrinkling in accordance with the criteria indicated in Table 1 below. The wrinkle evaluation was performed separately by four observers, who thereafter consulted together to determine a score about the wrinkle grade (hereinafter, simply referred to as “score”).
During the UV-B irradiation, 10 mM L- or D-methionine was given via a water supplier bottle. The UV irradiation and the wrinkling determination were conducted by the methods described in Example 2.

Data set [5] deals with human neonatal dermal fibroblast (Cryo NHDF-Neo). The experiment in a line: Ultraviolet irradiation-induced damage test in cultured cell, post-irradiation addition (Alamar Blue). The conditions noted are these: UV-A 8 J/cm^2. For orientation: Resazurin is reduced to fluorescent resorufin, in cell work by metabolically active cells.
Description: The cell employed was a commercially available human neonatal dermal fibroblast (Cryo NHDF-Neo, Sanko-Junyaku Co., Ltd.). This cell was inoculated at 2×10^5 cells/mL to a commercially available culture dish of 35 mm in diameter (BD FALCON 353001, Becton Dickinson Japan), where it was cultured in a commercially available cell culture medium (D-MEM (1 g/L glucose, Wako Pure Chemical Industries, Ltd.) supplemented with 10% fetal bovine serum and 1% antibiotic (15240-062, GIBCO) (hereinafter, referred to as “ordinary medium”). This cell was cultured for about 24 hours in a 5% CO2 and saturated water vapor atmosphere at 37° C. (degrees Celsius).
Thereafter, the culture medium for culturing the cell described above was switched to 1 mL of a BSO medium supplemented with a glutathione biosynthesis inhibitor BSO (L-buthionine-(S,R)-sulfoximine, Wako Pure Chemical Industries, Ltd.) at 1×10^−3%, where the culture was conducted for about 24 hours in a 5% CO2 and saturated water vapor atmosphere at 37° C. […] The BSO medium described above was prepared by a 200-fold dilution of a stock solution containing 0.2% BSO dissolved in ethyl alcohol with the ordinary medium described above.
Ferric chloride (II) was dissolved in a distilled water at 2×10^−3%, and the resultant solution was subjected to a 200-fold dilution (final concentration: 1×10^−5%) with a phosphate buffer solution PBS (+) containing calcium ion and magnesium ion to obtain a medium (hereinafter, referred to as “UV irradiation medium”), which was warmed preliminarily to 37° C. before use.
Before UV-A irradiation, the culture medium was replaced with 1 mL of the UV irradiation medium described above. […] The UV dose was measured using UV RADIOMETER UVR-3036/S (Topcon Corporation).
After the ultraviolet irradiation, the medium was switched back to the ordinary medium described above, and the culture was conducted in a 5% CO2 and saturated water vapor atmosphere at 37° C.
Thereafter, the culture medium was supplemented with Alamar Blue (trade mark, Invitrogen) at a final concentration of 10%, and its supernatant was determined for the fluorescent intensity three hours later with an excitation wavelength of 544 nm and a fluorescent wavelength of 590 nm as described by Ahmed S. A. et al. (J. Immunol. Method. 170, 211-224 (1994)) and in accordance with the manufacture's instruction.
Where [6] appears, read: Homo sapiens, Fibroblast, light or radiation study, read-out: percentage of the viable cell.

`CSCC[C@@H](N)C(=O)O` [D-methionine]: in data set [1] (setting [6]), the viability at 0.01 µM stood at 102%, the viability at 0.1 µM is 81%, the viability at 1 µM amounted to 97% and the viability at 10 µM was determined as 114%. In data set [1] (setting [6]), the viability at 100 µM turned out to be 76%. Besides, in data set [1], the “effect of pre-irradiation addition on viable cells and cell death (in words)” value was “an increased percentage of the viable cell and a reduced cell death”. In addition, the “measured value of the skin thickness (skin thickness×2)” value in data set [2] (10 mM in drinking water during 12 weeks UV-B, total 4.482 J/cm^2, UV(−)/H20 0.81 mm, UV(+)/H20 1.25 mm) is reported as 1.00 mm. The “effect on UV-B-induced skin thickening (in words)” value in data set [2] (10 mM in drinking water, UV-B total 4.482 J/cm^2, Bonferroni/Dunn test) is given as “statistically significant reduction in this skin thickening”. Further, in data set [3] (UV-B total 4.482 J/cm^2, UV(+) control: 2 scored 4, two 5, one 6, one 7), the “number of animals of each wrinkle score after the UV-B irradiation” value (“number of animals of each wrinkle score” below) was “four animals scored 3, two animals scored 4 and one animal scored 5”. Further, in data set [3] (P=1.8% in Mann-Whitney U test), the “effect on UV-B-induced wrinkling (in words)” value is “statistically significant reduction in this wrinkling”. Besides, in data set [4], the “effect on UV-B-induced wrinkling (in words)” value is “statistically significant reduction in this wrinkling”; the “number of animals of each wrinkle score” value is “six animals scored 5 and two animals scored 6”. Besides, the “percentage of the viable cell (positive control)” value in data set [5] (added at 0.1 μM, called positive control, negative control 64%) worked out at 82%. In data set [5] (post-irradiation addition 0.01 to 100 μM), the “effect of post-irradiation addition on viable cells and cell death (in words)” value is “an increased percentage of the viable cell and a reduced cell death”. Moreover, in data set [5] (post-irradiation addition at 0.01 μM, negative control 64%), the “percentage of the viable cell” value came to 93%. In data set [5] (post-irradiation addition at 0.1 μM, negative control 64%), the “percentage of the viable cell” value came out at 84%. Moreover, the “percentage of the viable cell” value in data set [5] (post-irradiation addition at 1 μM, negative control 64%) is 82%. In addition, the “percentage of the viable cell” value in data set [5] (post-irradiation addition at 100 μM, negative control 64%) stood at 87%.

`O=C(O)[C@H]1CCCN1` [D-proline, reference compound]: the viability at 0.1 µM in data set [1] (setting [6]) came to 100%.

Take `CSCC[C@H](N)C(=O)O` [L-methionine]: in data set [1] (setting [6]), the viability at 0.001 µM stood at 40%, the viability at 0.01 µM was determined as 72%, the viability at 0.1 µM worked out at 67% and the viability at 1 µM worked out at 45%. Moreover, in data set [1] (setting [6]), the viability at 10 µM was found to be 73% and the viability at 100 µM turned out to be 62%. The “effect of pre-irradiation addition on viable cells and cell death (in words)” value in data set [1] is “an increased percentage of the viable cell and a reduced cell death”. Besides, in data set [4], the “effect on UV-B-induced wrinkling (in words)” value is listed as “less effective in reducing the UV-B irradiation-induced wrinkling than D-methionine”; the “number of animals of each wrinkle score” value was “one animal scored 4, two animals scored 5, two animals scored 6 and two animals scored 7”.
